In this experiment the test system is GCP purified from post-natal day 4 rat cerebellum. The experiment in a line: Ki-67 proliferation of electroporated GCP overexpressing BOC, with Shh and Smo inhibitor. It is filed as cell-based. The settings on record: 10 nM Shh plus SANT-1. Here is the method:
GCP purified from post-natal day 4 rat cerebellum were co-electroporated with either a combination of BOC with a red fluorescence protein expressing plasmids (BOC) or with a control empty plasmid with a red fluorescence protein expressing plasmid (control). Proliferation was evaluated by measuring the percentage of Ki-67 positive cells among electroporated cells in absence or in presence of sonic hedgehog (Shh) and also in presence of Shh in combination with an inhibitor of Smo (SANT-1);
GCP purified from post-natal day 4 rat cerebellum were co-electroporated with either a combination of a plasmid containing a nucleic acid encoding murine BOC with a red fluorescent protein (RFP)-expressing plasmids (BOC) (both genes under the control of the chicken beta-actin promoter) or with a control empty plasmid with a red fluorescent protein-expressing plasmid (control). Proliferation was evaluated by measuring the percentage of Ki-67-positive cells among electroporated cells in the presence or absence of Shh. In addition, the role of the Hh signalling protein Smoothened (Smo) was tested using an inhibitor of Smo (SANT-1) in combination with Shh.

In the case of `Cc1nn(-c2ccccc2)c(C)c1/C=N/N1CCN(Cc2ccccc2)CC1` [SANT-1], the “effect on BOC-mediated increase in percentage of Ki-67-positive cells” value is “prevents this increase”.

Values taken from patent US8241846B1, “Hedgehog pathway modulation and uses thereof for treating, preventing and/or diagnosing cancer” (Institut de Recherches Cliniques de Montreal, priority 2008, dated 2012).
